Experimental findings from patent publication US10703756B2, “Pyrrolo[2,3-D]pyrimidinyl, pyrrolo[2,3-B]pyrazinyl, pyrrolo[2,3-B]pyridinyl acrylamides and epoxides thereof” (Pfizer Inc., priority 2015, dated 2020) are described below.

Each structure is given as a SMILES string. Read-outs that look alike come from different tables or passages of the source. Where only a bound is given, the exact number is not on record here.

Series [1] addresses T1, JAK3 enzyme (Homo sapiens, UniProt P52333).
T1 sequence (P52333 1-1124): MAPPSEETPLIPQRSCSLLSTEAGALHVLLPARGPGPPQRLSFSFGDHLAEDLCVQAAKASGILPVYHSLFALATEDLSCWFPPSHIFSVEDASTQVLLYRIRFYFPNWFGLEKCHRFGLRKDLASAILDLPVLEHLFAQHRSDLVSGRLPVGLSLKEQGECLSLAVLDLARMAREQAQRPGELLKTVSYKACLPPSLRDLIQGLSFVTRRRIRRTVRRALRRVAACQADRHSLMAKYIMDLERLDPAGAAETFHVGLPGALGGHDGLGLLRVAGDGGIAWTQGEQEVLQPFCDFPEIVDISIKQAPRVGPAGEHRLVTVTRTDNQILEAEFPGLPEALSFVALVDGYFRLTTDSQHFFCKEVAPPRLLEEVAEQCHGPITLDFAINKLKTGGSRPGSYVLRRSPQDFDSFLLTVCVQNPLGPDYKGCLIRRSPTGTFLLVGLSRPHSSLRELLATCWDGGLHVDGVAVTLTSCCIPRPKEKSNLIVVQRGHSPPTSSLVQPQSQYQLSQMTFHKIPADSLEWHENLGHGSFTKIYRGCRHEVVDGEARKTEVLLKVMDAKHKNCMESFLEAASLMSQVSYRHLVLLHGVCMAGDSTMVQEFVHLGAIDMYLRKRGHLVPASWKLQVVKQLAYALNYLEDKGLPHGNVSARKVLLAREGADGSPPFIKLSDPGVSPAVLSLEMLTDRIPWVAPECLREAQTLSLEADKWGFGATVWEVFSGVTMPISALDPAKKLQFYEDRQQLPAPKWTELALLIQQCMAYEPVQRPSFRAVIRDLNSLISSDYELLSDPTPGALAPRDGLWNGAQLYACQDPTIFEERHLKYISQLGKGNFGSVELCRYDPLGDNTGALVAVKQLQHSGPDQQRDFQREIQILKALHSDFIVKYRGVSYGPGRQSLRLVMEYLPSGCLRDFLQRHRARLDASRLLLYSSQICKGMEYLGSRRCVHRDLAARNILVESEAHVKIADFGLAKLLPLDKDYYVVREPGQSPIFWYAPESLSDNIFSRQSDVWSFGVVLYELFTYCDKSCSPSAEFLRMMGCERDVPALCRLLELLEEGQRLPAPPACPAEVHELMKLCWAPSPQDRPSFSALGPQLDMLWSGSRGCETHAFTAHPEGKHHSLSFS
Nature of the series: JAK Caliper Enzyme Assay at 4 μM ATP. The class given is biochemical. A digest of the protocol:
(§1)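 Read-out: microfluidic mobility-shift separation quantifying substrate peptide versus phosphopeptide. Compounds were tested as 11-point half-log dilutions, top 600 μM in DMSO before transfer. Enzyme level and reaction time were tuned for each prep so conversion stayed at 20%-30%.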

In series [2] the target is T1, JAK3 enzyme. Put plainly: JAK Caliper Enzyme Assay at 1 mM ATP. Type of series: biochemical. In short, it runs like this:
as §1

Series [3] in a line: Stability of JAK3 Covalent Inhibitors in Human Whole Blood. The class given is in vitro ADME. The settings on record: 1 μM test compound, 37° C., 180 min incubation; for half-life at 1 μM: both sexes, read-out: Human blood stability t1/2. The procedure:
Stability of JAK3 Covalent Inhibitors in Rat and Human Whole Blood
Rat blood was collected from 3 male Sprague-Dawley rats (200-250 g, Charles River Laboratories) and pooled for each study. Human blood was collected from healthy subjects at the Occupational Health & Wellness Center at Pfizer, Groton, Conn. and pooled for each study. Both rat and human blood was collected freshly into K2-EDTA tubes and kept on ice. An aliquot of the blood was transferred to microtubes and pre-warmed for 10 min at 37° C. using a heat block. The test compound was then added (1 μM final concentration) and the incubation was continued for 180 min at 37° C. in duplicates. An aliquot of the incubation mixture was removed at designated time points during the course of the incubation, mixed with an aliquot of acetonitrile containing an internal standard, vortexed and centrifuged. The resulting supernatants were removed and subjected to LC-MS/MS analyses to determine parent compound concentrations. Peak area ratios of the parent compound vs the internal standard were used to determine the % of parent compound remaining vs incubation time.

Series [4] has as its system IL-15 induced P-STAT5 in human PBMC. Put plainly: PBMC IL-15 Induced P-STAT5. Type of series: cell-based. In short, it runs like this:
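Flow cytometry gated on total lymphocytes measured STAT5 staining (Alexa Fluor 647 antibody, overnight, 4 °C) in fixed, methanol-permeabilised human PBMC. Cells had received compound for 15 min at 37 °C (0.2% DMSO final), followed by 41 ng/mL final human IL-15 for 15 min.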

Setting [5] is: human PBMC, IL-15 final 41 ng/mL, read-out: PBMC IL15_pSTAT5_IC50.
[6] abbreviates: Homo sapiens, PBMC, read-out: PBMC IL15_pSTAT5_IC50 (nM).

As for `C=CC(=O)N1C[C@@H](Nc2cnc3[nH]cc(C(=O)N[C@@H](C)COC)c3n2)CC[C@H]1C` (racemic) [Example 65, Cis-racemic-2-{[1-acryloyl-6-methylpiperidin-3-yl]amino}-N-[(2S)-1-methoxypropan-2-yl]-5H-pyrrolo[2,3-b]pyrazine-7-carboxamide], the IC50 at JAK3 enzyme [1] was determined as 1.02 nM; against JAK3 enzyme [2], 53 nM; in series [4] (setting [5]) it was 585 nM. Besides, the half-life at 1 μM in series [3] was more than 6 h.
The matching figures for `C=CC(=O)N1C[C@@H](Nc2cnc3[nH]cc(C(=O)N[C@H](C)COC)c3n2)CC[C@H]1C` (racemic) [Example 68, Cis-racemic-2-{[1-acryloyl-6-methylpiperidin-3-yl]amino}-N-[(2R)-1-methoxypropan-2-yl]-5H-pyrrolo[2,3-b]pyrazine-7-carboxamide]: 2.17 nM, 247 nM, 4570 nM and more than 6 h.
`C=CC(=O)N1C[C@@H](Nc2cnc3[nH]cc(C(=O)NCC)c3n2)CC[C@H]1C` (racemic) [Example 74, Cis-racemic-2-{[1-acryloyl-6-methylpiperidin-3-yl]amino}-N-ethyl-5H-pyrrolo[2,3-b]pyrazine-7-carboxamide]: the results for the IC50 (at JAK3 enzyme [1]; against JAK3 enzyme [2]; in series [4] (setting [5])) were 0.995 nM, 177 nM and 1180 nM, respectively. Also, the half-life at 1 μM in series [3] was more than 6 h.
The like results for `C=CC(=O)N1C[C@@H](Oc2cnc3[nH]cc(C(=O)N[C@@H](C)COC)c3n2)CC[C@H]1C` (racemic) [Example 80, Cis-racemic-2-{[1-acryloyl-6-methylpiperidin-3-yl]oxy}-N-[(2S)-1-methoxypropan-2-yl]-5H-pyrrolo[2,3-b]pyrazine-7-carboxamide] were, in that order, 1.32 nM, 160 nM, 829 nM and 4.8 h.
For the compound `C=CC(=O)N1CC(Nc2ncnc3[nH]ccc23)CCC1[C@@H](C)O` (mixture of isomers) [Example 109], the figures for the IC50 (against JAK3 enzyme [1]; at JAK3 enzyme [2]; in series [4] (setting [5])) were 0.713 nM, 155 nM and 320 nM, respectively. Besides, the “Human blood stability t1/2” value in series [3] worked out at 2.20175 h.
For the compound `C=CC(=O)N1CCN(c2cnc3[nH]cc(C(=O)NC(C)COC)c3n2)CC1(C)C` (racemic) [Example 148, Racemic-2-(4-acryloyl-3,3-dimethylpiperazin-1-yl)-N-(1-methoxypropan-2-yl)-5H-pyrrolo[2,3-b]pyrazine-7-carboxamide], the IC50 on JAK3 enzyme [1] was determined as 0.773 nM; against JAK3 enzyme [2], 111 nM; in series [4] (setting [5]), 312 nM. For the same compound, the half-life at 1 μM in series [3] was more than 6 h.
The matching figures for `C=CC(=O)N1CC[C@H](Nc2cnc3[nH]cc(C(=O)N[C@@H](C)COC)c3n2)C[C@@H]1C` (racemic) [Example 353, 2-(((2S,4S)-1-Acryloyl-2-methylpiperidin-4-yl)amino)-N—((S)-1-methoxypropan-2-yl)-5H-pyrrolo[2,3-b]pyrazine-7-carboxamide]: 1.48 nM, 123 nM, 2200 nM and more than 6 h.
Regarding `C=CC(=O)N1CC[C@H](Nc2cnc3[nH]cc(C(=O)N[C@@H](C)COC)c3n2)C[C@@H]1C` (relative stereo) [Example 55, 2-{[(2S,4S)-1-acryloyl-2-methylpiperidin-4-yl]amino}-N-[(2S)-1-methoxypropan-2-yl]-5H-pyrrolo[2,3-b]pyrazine-7-carboxamide], the results for the IC50 (at JAK3 enzyme [1]; against JAK3 enzyme [2]; in series [4] (setting [6])) were 2.21 nM, 192 nM and 2260 nM, respectively. Also, in series [3], the half-life at 1 μM is more than 6 h.
On to `C=CC(=O)N1CCC[C@H]1COc1cnc2[nH]cc(C(=O)N[C@@H](C)COC)c2n1` (single isomer, unassigned) [Example 8], for which the IC50 is 0.355 nM against JAK3 enzyme [1], 46 nM against JAK3 enzyme [2] and 133 nM in series [4] (setting [5]). For the same compound, the half-life at 1 μM in series [3] was more than 6 h.
The like results for `C=CC(=O)N1CC[C@@H](CNc2cnc3[nH]cc(C(=O)N[C@@H](C)COC)c3n2)C1` (single isomer, unassigned) [Example 17] were, in that order, 0.319 nM, 37 nM, 2560 nM and 3.16 h.
The like results for `C=CC(=O)N1CC[C@H](CNc2cnc3[nH]cc(C(=O)N[C@@H](C)COC)c3n2)C1` (single isomer, unassigned) [Example 18] were, in that order, 0.491 nM, 96 nM, 5990 nM and more than 6 h.
In the case of `C=CC(=O)N1CC[C@H](Nc2cnc3[nH]cc(C(=O)NCC)c3n2)[C@@H](OC)C1` (single isomer, unassigned) [Example 27], the IC50 against JAK3 enzyme [1] was 0.468 nM; against JAK3 enzyme [2], 19 nM; in series [4] (setting [5]), 382 nM. Further, the half-life at 1 μM in series [3] was more than 6 h.
The like results for `C=CC(=O)N1CC[C@H](Nc2cnc3[nH]cc(C(=O)NCC)c3n2)[C@@H](O)C1` (single isomer, unassigned) [Example 32] were, in that order, 0.848 nM, 138 nM, 9100 nM and more than 6 h.
The like results for `C=CC(=O)N1CC[C@@H](Nc2cnc3[nH]cc(C(=O)NCC)c3n2)[C@H](O)C1` (single isomer, unassigned) [Example 33] were, in that order, 0.23 nM, 34 nM, 2810 nM and 3.47 h.
The like results for `C=CC(=O)N1CC[C@H](Nc2cnc3[nH]cc(C(=O)NCC)c3n2)[C@H](C)C1` (single isomer, unassigned) [Example 39] were, in that order, 1.01 nM, 202 nM, 2380 nM and more than 6 h.
In the case of `C=CC(=O)N1CC[C@H](Nc2cnc3[nH]cc(C(=O)NCC)c3n2)[C@@H](C)C1` (single isomer, unassigned) [Example 45], the IC50 against JAK3 enzyme [1] worked out at 0.39 nM; at JAK3 enzyme [2], 57 nM; in series [4] (setting [5]), 460 nM. Moreover, the half-life at 1 μM in series [3] worked out at 3.37 h.
Turning to `C=CC(=O)N1CC[C@H](Nc2cnc3[nH]cc(C(=O)N[C@H](C)COC)c3n2)C[C@@H]1C` (single isomer, unassigned) [Example 57], the IC50 against JAK3 enzyme [1] came out at 4.45 nM; against JAK3 enzyme [2], 241 nM; in series [4] (setting [6]) it was 3220 nM. For the same compound, in series [3], the half-life at 1 μM was more than 6 h.
The like results for `C=CC(=O)N1CC[C@@H](Nc2cnc3[nH]cc(C(=O)N[C@H](C)COC)c3n2)C[C@H]1C` (single isomer, unassigned) [Example 58] were, in that order, 2.77 nM, 282 nM, 4740 nM and more than 6 h.
For the compound `C=CC(=O)N1C[C@@H](Nc2cnc3[nH]cc(C(=O)N[C@@H](C)COC)c3n2)CC[C@H]1C` (single isomer, unassigned) [Example 67], the results for the IC50 (at JAK3 enzyme [1]; at JAK3 enzyme [2]; in series [4] (setting [5])) were 0.511 nM, 25 nM and 439 nM, respectively. The half-life at 1 μM in series [3] is more than 6 h.
